≈ marks a conversion by molar mass, not a printed value.
Key:
Assay type in all cases: cell-based
[1] = test system: ADC-7 in DH10B Escherichia coli; test: MIC by broth microdilution, ADC-7 in DH10B E. coli; conditions: DH10B E. coli expressing ADC-7 (non-Adup) from pBCSK−, FDC in iron-depleted cation-adjusted MH broth, mode of triplicate
Procedure: (§1) Susceptibility testing to standard antibiotics was performed by broth microdilution according to 2024 Clinical and Laboratory Standards Institute (CLSI) guidelines ([38]). MICs for FDC were done in iron-depleted cation-adjusted Mueller-Hinton (MH) broth according to CLSI methods. All MICs were interpreted according to the 2024 CLSI guidelines ([38]). MICs are done in triplicate, and the mode MIC value is reported.
(§2) blaADC-7 pBCSK− was cloned and expressed in E. coli DH10B cells as previously described for MIC determinations ([3]). The pBCSK-non-inducible phagemid vector has a chloramphenicol resistance gene used to aid selection. All other blaADC variants were synthesized by GenScript according to the blaADC-7 pBCSK− strategy, cloning into the XbaI/BamHI sites of the pBCSK− vector ([5]).

[2] = test system: ADC-30 in DH10B Escherichia coli; test: MIC by broth microdilution, ADC-30 in DH10B E. coli; conditions: DH10B E. coli expressing ADC-30 (non-Adup) from pBCSK−, FDC in iron-depleted cation-adjusted MH broth, mode of triplicate
Procedure: as §1, §2

[3] = test system: ADC-73 in DH10B Escherichia coli; test: MIC by broth microdilution, ADC-73 in DH10B E. coli; conditions: DH10B E. coli expressing ADC-73 (non-Adup) from pBCSK−, FDC in iron-depleted cation-adjusted MH broth, mode of triplicate
Procedure: as §1, §2

[4] = test system: ADC-143 in DH10B Escherichia coli; test: MIC by broth microdilution, ADC-143 in DH10B E. coli; conditions: DH10B E. coli expressing ADC-143 (non-Adup) from pBCSK−, FDC in iron-depleted cation-adjusted MH broth, mode of triplicate
Procedure: as §1, §2

[5] = test system: ADC-217 in DH10B Escherichia coli; test: MIC by broth microdilution, ADC-217 in DH10B E. coli; conditions: DH10B E. coli expressing ADC-217 (non-Adup) from pBCSK−, FDC in iron-depleted cation-adjusted MH broth, mode of triplicate
Procedure: as §1, §2

[6] = test system: ADC-33 in DH10B Escherichia coli; test: MIC by broth microdilution, ADC-33 in DH10B E. coli; conditions: DH10B E. coli expressing ADC-33 (Adup) from pBCSK−, FDC in iron-depleted cation-adjusted MH broth, mode of triplicate
Procedure: as §1, §2

[7] = test system: ADC-172 in DH10B Escherichia coli; test: MIC by broth microdilution, ADC-172 in DH10B E. coli; conditions: Escherichia coli; DH10B E. coli expressing ADC-172 (Adup) from pBCSK−; FDC in iron-depleted cation-adjusted MH broth; mode of triplicate; read-out: MIC
Procedure: as §1, §2

[8] = test system: ADC-218 in DH10B Escherichia coli; test: MIC by broth microdilution, ADC-218 in DH10B E. coli; conditions: DH10B E. coli expressing ADC-218 (Adup) from pBCSK−, FDC in iron-depleted cation-adjusted MH broth, mode of triplicate
Procedure: as §1, §2

[9] = test system: ADC-219 in DH10B Escherichia coli; test: MIC by broth microdilution, ADC-219 in DH10B E. coli; conditions: DH10B E. coli expressing ADC-219 (Adup) from pBCSK−, FDC in iron-depleted cation-adjusted MH broth, mode of triplicate
Procedure: as §1, §2

[10] = test system: DH10B Escherichia coli pBCSK− no insert; test: MIC by broth microdilution, DH10B E. coli with pBCSK− no insert; conditions: DH10B E. coli with pBCSK− no insert (control strain), FDC in iron-depleted cation-adjusted MH broth
Procedure: as §1, §2

[11] = test system: DH10B alone; test: MIC by broth microdilution, DH10B alone; conditions: Escherichia coli; DH10B alone (control strain); FDC in iron-depleted cation-adjusted MH broth
Procedure: as §1, §2

[12] = test system: ADC variants in DH10B Escherichia coli; test: MIC, statements across ADC variants in E. coli
Procedure: as §1, §2

Compound | MIC [1] [µg/mL] | MIC [2] [µg/mL] | MIC [3] [µg/mL] | MIC [4] [µg/mL] | MIC [5] [µg/mL] | MIC [6] [µg/mL] | MIC [7] [µg/mL] | MIC [8] [µg/mL] | MIC [9] [µg/mL] | MIC [10] [µg/mL] | MIC [11] [µg/mL] | MIC [12] [µg/mL]
CC(=O)OCC1=C(C(=O)O)N2C(=O)[C@@H](NC(=O)Cc3cccs3)[C@H]2SC1 [CEF, cephalothin] | 4100 (≈ 10300 µM) | 4100 (≈ 10300 µM) | 2050 (≈ 5170 µM) | 2050 (≈ 5170 µM) | 2050 (≈ 5170 µM) | 2050 (≈ 5170 µM) | 2050 (≈ 5170 µM) | 2050 (≈ 5170 µM) | 1020 (≈ 2580 µM) | 8 (≈ 20.2 µM) | 16 (≈ 40.4 µM) | –
C[C@H]1[C@H](NC(=O)/C(=N\OC(C)(C)C(=O)O)c2csc(N)n2)C(=O)N1S(=O)(=O)O [ATM, aztreonam] | 8 (≈ 18.4 µM) | 8 (≈ 18.4 µM) | 2 (≈ 4.59 µM) | 16 (≈ 36.7 µM) | 8 (≈ 18.4 µM) | 64 (≈ 147 µM) | 32 (≈ 73.5 µM) | 256 (≈ 588 µM) | 32 (≈ 73.5 µM) | 0.12 (≈ 0.276 µM) | 0.25 (≈ 0.574 µM) | –
C[C@@H](O)[C@H]1C(=O)N2C(C(=O)O)=C(SCCN=CN)C[C@H]12 [IPM, imipenem] | – | – | – | – | – | – | – | – | – | 0.25 (≈ 0.835 µM) | – | –
Cn1c(N)c(NC(=O)NCCN)c[n+]1CC1=C(C(=O)O)N2C(=O)[C@@H](NC(=O)/C(=N\OC(C)(C)C(=O)[O-])c3nsc(N)n3)[C@H]2SC1 [TOL, ceftolozane] | 8 (≈ 12 µM) | 4 (≈ 6 µM) | 2 (≈ 3 µM) | 16 (≈ 24 µM) | 16 (≈ 24 µM) | 512 (≈ 768 µM) | 512 (≈ 768 µM) | 512 (≈ 768 µM) | 128 (≈ 192 µM) | 0.5 (≈ 0.75 µM) | 0.5 (≈ 0.75 µM) | ≥ 512

Reference: publication PMC12153338, “Resistance to oxyimino-cephalosporins conferred by an alternative mechanism of hydrolysis by the Acinetobacter-derived cephalosporinase-33 (ADC-33), a class C β-lactamase present in carbapenem-resistant Acinetobacter baumannii (CRAb)” (mBio, 2025)
